The numbers were not newly measured in PubChem BioAssay AID1259409 (Chemical Carcinogenesis Research Information System (CCRIS), 2018), which cites them from elsewhere.

SMILES strings stand for the structures. “And” between values parts separate entries of the source, which are not always exact repeats. Identical values can stand only once.

The data set concerns rodent chemically induced tumor inhibition, incidence and multiplicity. Briefly: CCRIS tumor inhibitor studies.

In the case of `S=C=Nc1c2ccccc2c2ccc3cccc4ccc1c2c43`, for the setting “Carcinogen: BENZO[A]PYRENE, 50-32-8, Dose [Inhibitor]: 0, 5 UMOL IN ACETONE 4 HR PRIOR TO CARCINOGEN DOSE (STUDY DURATION: 20 WK), Route [Inhibitor]: DERMAL, Species: MOUSE, Strain/Sex: STRAIN-A/FEMALE, Target Tissue: Type of Lesion: SKIN: TUMOR, Dose [Carcinogen]: 0.1 UMOL IN ACETONE ONCE, Promoter: 12-O-TETRADECANOYLPHORBOL-13-ACETATE, 16561-29-8”, the outcome is recorded as 85%, 60%, 18%, not significant at 15 wk; 95%, 90%, 5%, not significant at 20 wk.

For the compound `CC(=O)Nc1ccc(O)cc1`, the “tumour outcome (control, treated, inhibition, significance)” value is listed as 29/29 (100%), 25/25 (100%), 0%, not significant (Carcinogen: 4-(METHYLNITROSAMINO)-1-(3-PYRIDYL)-1-BUTANONE, 64091-91-4, Dose [Inhibitor]: 0, 1520 MMOL/KG BW/D IN DIET FOR DURATION OF STUDY BEGINNING 2 WK PRIOR TO CARCINOGEN TREATMENT (STUDY DURATION: 25 WK), Route [Inhibitor]: ORAL, Species: MOUSE, Strain/Sex: STRAIN-A/FEMALE, Target Tissue: Type of Lesion: LUNG:TUMOR, Dose [Carcinogen]: 2.2 MMOL/KG BW (TOTAL DOSE) ADMINISTERED IN DRINKING WATER FOR 7 WK, Promoter: NONE USED); 5/23 (22%), 15/27 (56%), -154%, p<0.01 (Carcinogen: N-ETHYL-N-HYDROXYETHYLNITROSAMINE, 13147-25-6, Dose [Inhibitor]: 1.3% IN DIET BEGINNING 1 WK AFTER LAST CARCINOGEN TREATMENT AND CONTINUING THROUGH DURATION OF STUDY (STUDY DURATION: 32, Route [Inhibitor]: ORAL, Species: RAT, Strain/Sex: F344/MALE, Target Tissue: Type of Lesion: KIDNEY: ADENOMA, Dose [Carcinogen]: 0.1% IN DRINKING WATER FOR 2 WK AT BEGINNING OF STUDY, Promoter: NONE USED); 11/23 (48%), 3/27 (11%), 77%, p<0.05 (Carcinogen: N-ETHYL-N-HYDROXYETHYLNITROSAMINE, 13147-25-6, Dose [Inhibitor]: 1.3% IN DIET BEGINNING 1 WK AFTER LAST CARCINOGEN TREATMENT AND CONTINUING THROUGH DURATION OF STUDY (STUDY DURATION: 32, Route [Inhibitor]: ORAL, Species: RAT, Strain/Sex: F344/MALE, Target Tissue: Type of Lesion: LIVER: HEPATOCELLULAR CARCINOMA, Dose [Carcinogen]: 0.1% IN DRINKING WATER FOR 2 WK AT BEGINNING OF STUDY, Promoter: NONE USED). In addition, under “Carcinogen: N-ETHYL-N-HYDROXYETHYLNITROSAMINE, 13147-25-6, Dose [Inhibitor]: 1.3% IN DIET BEGINNING 1 WK AFTER LAST CARCINOGEN TREATMENT AND CONTINUING THROUGH DURATION OF STUDY (STUDY DURATION: 32, Route [Inhibitor]: ORAL, Species: RAT, Strain/Sex: F344/MALE, Target Tissue: Type of Lesion: KIDNEY: ADENOCARCINOMA, Dose [Carcinogen]: 0.1% IN DRINKING WATER FOR 2 WK AT BEGINNING OF STUDY, Promoter: NONE USED”, the outcome is 0/23 (0%), 1/23 (4%), not significant.

As to `CC1(C)O[C@H]2CC(=O)OC[C@]23[C@H]2CC[C@@]4(C)[C@H](c5ccoc5)OC(=O)[C@H]5O[C@]54[C@]2(C)C(=O)C[C@@H]13`, under “Carcinogen: AZOXYMETHANE, 25843-45-2, Dose [Inhibitor]: 0, 0.05% IN DIET FOR 35 WK BEGINNING 1 WK POST CARCINOGEN LAST DOSE (STUDY DURATION: 38 WK), Route [Inhibitor]: ORAL, Species: RAT, Strain/Sex: F344/MALE, Target Tissue: Type of Lesion: COLON: ADENOCARCINOMA, Dose [Carcinogen]: 20 MG/KG BW 1/WK FOR 2 WK”, the “tumour outcome (control, treated, inhibition, significance)” value was 18/25 (72%), 1/16 (6%), 92%, p=0.00003 and 18/25 (72%), 2/16 (13%), 82%, p=0.0002.

On to `CCCCCCCCCCCCCCCCCCCCCCCCCC(=O)N[C@@H](CO[C@H]1O[C@H](CO)[C@H](O)[C@H](O)[C@H]1O)[C@H](O)[C@H](O)CCCCCCCCCCCCCC`, for which the outcome reads like this: (Carcinogen: N-BUTYL-N-(4-HYDROXYBUTYL)NITROSAMINE, 3817-11-6, Dose [Inhibitor]: 0, 0.1 UG/KG ONCE/WK FOR 17 WK BY INTRAVESICULAR INSTILLATION UNDER ANESTHESIA, BEGINNING 1 WK AFTER INITIATION PERIOD (, Route [Inhibitor]: INTRAVESICULAR, Species: MOUSE, Strain/Sex: C57BL6/FEMALE, Target Tissue: Type of Lesion: URINARY BLADDER: SQUAMOUS CELL CARCINOMA, Dose [Carcinogen]: 0.05% IN DRINKING WATER FOR 8 WK) 0/13 (0%), 0/13 (0%), not significant; (Carcinogen: N-BUTYL-N-(4-HYDROXYBUTYL)NITROSAMINE, 3817-11-6, Dose [Inhibitor]: 0, 10 UG/KG ONCE/WK FOR 17 WK BY INTRAVESICULAR INSTILLATION UNDER ANESTHESIA, BEGINNING 1 WK AFTER INITIATION PERIOD (S, Route [Inhibitor]: INTRAVESICULAR, Species: MOUSE, Strain/Sex: C57BL6/FEMALE, Target Tissue: Type of Lesion: URINARY BLADDER: SQUAMOUS CELL CARCINOMA, Dose [Carcinogen]: 0.05% IN DRINKING WATER FOR 8 WK) 0/13 (0%), 2/11 (18.2%), not significant. Also, the “tumour outcome (control, treated, inhibition, significance)” value (Carcinogen: N-BUTYL-N-(4-HYDROXYBUTYL)NITROSAMINE, 3817-11-6, Dose [Inhibitor]: 0, 10 UG/KG ONCE/WK FOR 17 WK BY INTRAVESICULAR INSTILLATION UNDER ANESTHESIA, BEGINNING 1 WK AFTER INITIATION PERIOD (S, Route [Inhibitor]: INTRAVESICULAR, Species: MOUSE, Strain/Sex: C57BL6/FEMALE, Target Tissue: Type of Lesion: URINARY BLADDER: TRANSITIONAL CELL CARCINOMA, Dose [Carcinogen]: 0.05% IN DRINKING WATER FOR 8 WK) is on record as 1/13 (7.7%), 3/11 (27.3%), -254%, not significant.

As for `CC(C)=CCC/C(C)=C/Cc1cc2ccc(=O)oc2cc1O`, the “tumour outcome (control, treated, inhibition, significance)” value by setting is: (Carcinogen: 7,12-DIMETHYLBENZ[A]ANTHRACENE, 57-97-6, Dose [Inhibitor]: 0, 400 NMOL ONCE APPLIED 5 MIN PRIOR TO CARCINOGEN DOSE (STUDY DURATION: 25 WK), Route [Inhibitor]: DERMAL, Species: MOUSE, Strain/Sex: SENCAR, Target Tissue: Type of Lesion: SKIN: PAPILLOMA, Dose [Carcinogen]: 10 NMOL ONCE, Promoter: 12-O-TETRADECANOYLPHORBOL-13-ACETATE, 16561-29-8) 96%, 96%, 0%, not significant; (Carcinogen: 7-12-DIMETHYLBENZ[A]ANTHRACENE, 57-97-6, Dose [Inhibitor]: 0, 1200 NMOL ONCE APPLIED 5 MIN PRIOR TO CARCINOGEN DOSE (STUDY DURATION: 25 WK), Route [Inhibitor]: DERMAL, Species: MOUSE, Strain/Sex: SENCAR, Target Tissue: Type of Lesion: SKIN: PAPILLOMA, Dose [Carcinogen]: 10 NMOL ONCE, Promoter: 12-O-TETRADECANOYLPHORBOL-13-ACETATE, 16561-29-8) 93%, 96%, -3%, not significant; (Carcinogen: BENZO[A]PYRENE, 50-32-8, Dose [Inhibitor]: 0, 400 NMOL ONCE APPLIED 5 MIN PRIOR TO CARCINOGEN DOSE (STUDY DURATION: 25 WK), Route [Inhibitor]: DERMAL, Species: MOUSE, Strain/Sex: SENCAR, Target Tissue: Type of Lesion: SKIN: PAPILLOMA, Dose [Carcinogen]: 200 NMOL ONCE, Promoter: 12-O-TETRADECANOYLPHORBOL-13-ACETATE, 16561-29-8) 91%, 91%, 0%, not significant; (Carcinogen: BENZO[A]PYRENE, 50-32-8, Dose [Inhibitor]: 0, 1200 NMOL ONCE APPLIED 5 MIN PRIOR TO CARCINOGEN DOSE (STUDY DURATION: 25 WK), Route [Inhibitor]: DERMAL, Species: MOUSE, Strain/Sex: SENCAR, Target Tissue: Type of Lesion: SKIN: PAPILLOMA, Dose [Carcinogen]: 200 NMOL ONCE, Promoter: 12-O-TETRADECANOYLPHORBOL-13-ACETATE, 16561-29-8) 92%, 93%, -1%, not significant.

As for `CCC(C)C(NC(=O)C(C)NC(=O)C(Cc1cnc[nH]1)NC(=O)C1CCCN1C(=O)CNC(=O)C(CC(C)C)NC(=O)C(CC(C)C)NC(=O)C(Cc1ccc(O)cc1)NC(=O)CNC(=O)C(C)NC(=O)C(CO)NC(=O)C(CC(N)=O)NC(=O)C(CC(C)C)NC(=O)C(NC(=O)C(Cc1c[nH]c2ccccc12)NC(=O)CN)C(C)O)C(=O)NC(CC(=O)O)C(=O)NC(CC(N)=O)C(=O)NC(Cc1c[nH]cn1)C(=O)NC(CCCNC(=N)N)C(=O)NC(CO)C(=O)NC(Cc1ccccc1)C(=O)NC(Cc1cnc[nH]1)C(=O)NC(CC(=O)O)C(=O)NC(CCCCN)C(=O)NC(Cc1ccc(O)cc1)C(=O)NCC(=O)NC(CC(C)C)C(=O)NC(C)C(N)=O` (stereo unspecified), the “tumour outcome (control, treated, inhibition, significance)” value was 15/19 (79%), 7/19 (37%), 53%, p<0.05 (Carcinogen: AZOXYMETHANE, 25843-45-2, Dose [Inhibitor]: 0, 4 UG/KG BW IN OLIVE OIL 1/2 D FOR DURATION OF STUDY (STUDY DURATION: 45 WK), Route [Inhibitor]: SUBCUTANEOUS, Species: RAT, Strain/Sex: WISTAR/MALE, Target Tissue: Type of Lesion: COLON: ADENOMA OR ADENOCARCINOMA, Dose [Carcinogen]: 7.4 MG/KG BW IN 0.9% SALINE 1/WK FOR 10 WK, Promoter: NONE USED); 10/20 (50%), 10/20 (50%), 0%, not significant (Carcinogen: N-METHYL-N'-NITRO-N-NITROSOGUANIDINE, 70-25-7, Dose [Inhibitor]: 0, 2 UG/KG BW IN OLIVE OIL 1/2 WK FOR 26 WK BEGINNING POST CARCINOGEN TREATMENT (STUDY DURATION: 52 WK), Route [Inhibitor]: SUBCUTANEOUS, Species: RAT, Strain/Sex: WISTAR/MALE, Target Tissue: Type of Lesion: STOMACH: ADENOCARCINOMA, Dose [Carcinogen]: 50 UG/ML IN DRINKING WATER FOR 25 WK, Promoter: NONE USED); 10/20 (50%), 3/20 (15%), 70%, p<0.01 (Carcinogen: N-METHYL-N'-NITRO-N-NITROSOGUANIDINE, 70-25-7, Dose [Inhibitor]: 0, 4 UG/KG BW IN OLIVE OIL 1/2 WK FOR 26 WK BEGINNING POST CARCINOGEN TREATMENT (STUDY DURATION: 52 WK), Route [Inhibitor]: SUBCUTANEOUS, Species: RAT, Strain/Sex: WISTAR/MALE, Target Tissue: Type of Lesion: STOMACH: ADENOCARCINOMA, Dose [Carcinogen]: 50 UG/ML IN DRINKING WATER FOR 25 WK, Promoter: NONE USED).
